Two compounds from patent US20040110847A1, “Compounds extracted from Sap of Rhus succedanea” (priority 2002, published 2004) can be followed below.

One data set has as its system Hela cells. The experiment in a line: Cytotoxicity, acid phosphatase assay, HeLa. In kind it is cell-based, Human. To be noted: 72 h; concentration of 50% growth inhibition. The method, then: (§1) (5). Determination of Cytotoxicity. Four human cancer cell lines, HeLa, Huh7, HCT116 and LoVo were used to assess cytotoxicity of the purified compounds. All the cell lines, except Huh7 cells,^14 were purchased from American Type Culture Collection. The cells were cultured in Dulbecco's modified Eagle medium (DMEM) supplemented with 10% fetal calf serum (FCS), 100 units/ml penicillin and […] streptomycin at 37° C. under 5% CO2. Cells were grown in a 96 well plate (2000 cells/well) with or without the addition of compounds 1, 2 or 3 for 72 h. An acid phosphatase assay^14,15 was then used to quantitate the viable cells. Briefly, after the media were aspirated, the cells were washed with phosphate buffer saline (PBS) and then incubated with 100 μl of 0.1M sodium acetate buffer containing 10 mM p-nitrophenyl phosphate and 0.1% Triton X-100, and incubated at 37° C. for 1 h. The reaction was stopped by the addition of 10 μl of 1 N NaOH and coloration of the cells was measured at 410 nm by an ELISA reader. The concentrations of 50% growth inhibition (IC50) were interpolated from dose-dependent growth inhibition curves. The data HeLa, Huh7, HCT116 and LoVo presented were the averages derived from a minimum of triplicate independent experiments.

A further data set relates to Lovo cells. The experiment in a line: Cytotoxicity, acid phosphatase assay, LoVo. The class given is cell-based, Human. To be noted: 72 h; concentration of 50% growth inhibition. As to the method:
as §1

Data set [1] concerns four human cancer cell lines (HeLa, Huh7, HCT116, LoVo). Put plainly: Cytotoxicity evaluation across four human cancer cell lines. The class given is cell-based. The method, then: as §1
The nature of data set [2]: Antioxidative potency (AOP), iron/ascorbate system with linoleic acid as substrate. To be noted: compared with BHT; FIG. 2; ca. 1, 4, 10 ppm; 37° C., 5 and 30 min. In kind it is biochemical. The method, then: (4). Determination of Antioxidative Activity: The procedure using an iron/ascorbate system reported by Yoon,^9 Chiou,^10 Decker,^11 Tamura,^12 and Sasaki^13 was modified. In a beaker (50 ml), 100 mg of linoleic acid, 1.0 g of Tween 20, and 20 ml of Tris-buffer (pH 7.4, 50 mM) were combined, gently shaken and emulsified with a sonicator for 2 min. An iron/ascorbate solution containing 30 μM FeCl3 and 200 μM ascorbic acid in the Tris-buffer (pH 7.4, 50 mM) was prepared daily. In a series of 1.5-ml microfuge tubes, 0.5 ml of the emulsified linoleic acid, 0.5 ml of the iron/ascorbate solution, and 0.1 ml of methanol containing various concentrations of the three compounds or BHT including 0, 10, 40 and 100 ppm (μg/ml) (resulting in ca. 0, 1, 4 and 10 ppm of concentration after combination) were deposited. Prior to incubation, the tubes were immersed and kept in an ice bath to minimize any reactions. To initiate reaction, the mixtures in the tubes were mixed by hand (gently to prevent foaming) and placed into the wells of a thermal block at 37° C. for 5 and 30 min. After incubation, the produced conjugated diene hydroperoxide (CDHP) contents were determined spectrophotometrically. […] The absorbance (A) at 234 nm of the mixture was measured. […] The percentage of AOP (capacity to inhibit peroxide formation in linoleic acid) was calculated as follows. […]

In another data set the test system is Huh7 cells. Put plainly: Cytotoxicity, acid phosphatase assay, Huh7. In kind it is cell-based, Human. The settings on record: 72 h; concentration of 50% growth inhibition. The method, then:
as §1

A further data set concerns HCT116 cells. The experiment in a line: Cytotoxicity, acid phosphatase assay, HCT116. The class given is cell-based, Human. To be noted: 72 h; concentration of 50% growth inhibition. The method, then:
as §1

The structures appear in SMILES notation. Values after ≈ are worked out from the molar mass of the structure shown.

On to `C/C=C/C=C/C/C=C\CCCCCCCCCc1cc(O)ccc1O` [Compound 1, 10′(Z),13′(E),15′(E)-heptadecatrienylhydroquinone], for which the “IC50 Hela cells” value in the data set on Hela cells is 2.8 µg/mL (≈ 8.17 µM). Further, the “IC50 Lovo cells” value in the data set with Lovo cells was found to be 4.5 µg/mL (≈ 13.1 µM). The “cytotoxic activity against four human cancer cell lines” value in data set [1] is given as “significant cytotoxic activity”. The “antioxidative potency (AOP)” value in data set [2] was “close to that of BHT”. Further, in the data set on Huh7 cells, the “IC50 Huh7 cells” value worked out at 3.9 µg/mL (≈ 11.4 µM). Besides, in the data set with HCT116 cells, the “IC50 HCT116 cells” value is 2.0 µg/mL (≈ 5.84 µM).

In the case of `CCC/C=C/C/C=C\CCCCCCCCCc1cc(O)ccc1O` [Compound 2, 10′(Z),13′(E)-heptadecadienylhydroquinone], the “IC50 Hela cells” value in the data set with Hela cells stood at 4.6 µg/mL (≈ 13.4 µM). In addition, in the data set on Lovo cells, the “IC50 Lovo cells” value amounted to 5.6 µg/mL (≈ 16.3 µM). Moreover, in data set [1], the “cytotoxic activity against four human cancer cell lines” value is “significant cytotoxic activity”. For the same compound, the “antioxidative potency (AOP)” value in data set [2] is “close to that of BHT”. Further, in the data set on Huh7 cells, the “IC50 Huh7 cells” value was 6.0 µg/mL (≈ 17.4 µM). Also, in the data set on HCT116 cells, the “IC50 HCT116 cells” value was 3.5 µg/mL (≈ 10.2 µM).
